Experimental data taken from paper PMC3530194 (Bioorganic & medicinal chemistry letters, 2012).

Tests used:
[1] = format: in vitro ADME, bovine
LS174T indicator cells = format: cell-based; details: human cells (LS174T), over the first 12 hours; Fig. 3A
[2] = Fig. 2E; for surface expression of azido-modified sialic acids: after 24 hours of FBS pre-treatment; for loss of surface azido-sialic acid signal: first four hours of FBS treatment
[3] = format: in vitro ADME, bovine; details: after 24 hours of serum pretreatment; Fig. 2D
[4] = tested on: hereditary inclusion body myopathy mouse model; details: cited from earlier work
[5] = cited from earlier work

SMILES | increased sialic acid production compared among analogs (LS174T indicator cells) | surface expression of azido-modified sialic acids [2] | loss of surface azido-sialic acid signal [2] | further results
CCCC(=O)OCC1OC(OC(=O)CCC)C(NC(C)=O)[C@@H](OC(=O)CCC)[C@@H]1OC(=O)CCC (stereo partly shown) [Bu4ManNAc] | statistically identical levels | – | – | reversion of analog-enhanced sialic acid production in indicator cells ([1]; lower concentrations of FBS (10% or 25%), Fig. 2B): did not result in a statistically significant reversion
CC(=O)OC[C@H]1OC(OC(C)=O)[C@@H](NC(=O)CN=[N+]=[N-])[C@@H](OC(C)=O)[C@@H]1OC(C)=O (stereo partly shown) [Ac4ManNAz, reference compound] | – | reduction, but not complete reversal | refractory to a loss of signal | –
CCCC(=O)OC[C@H]1OC(O)[C@@H](NC(C)=O)[C@@H](OC(=O)CCC)[C@@H]1OC(=O)CCC (stereo partly shown) [3,4,6-O-Bu3ManNAc] | statistically identical levels | – | – | loss of analog-enhanced cell growth inhibition [3]: complete reversal
CC(=O)N[C@@H]1C(OC(C)=O)O[C@H](COC(C)=O)[C@@H](OC(C)=O)[C@@H]1OC(C)=O (stereo partly shown) [Ac4ManNAc, reference compound] | – | – | – | serum inactivation of analog, read as sialic acid production in indicator cells ([1]; FBS (100% serum) pre-incubation, Fig. 2A): refractory to serum inactivation; time of peak sialic acid production after administration [4]: peaked as soon as four hours after administration
CCCC(=O)OC1O[C@H](CO)[C@@H](OC(=O)CCC)[C@H](OC(=O)CCC)[C@@H]1NC(C)=O (stereo partly shown) [1,3,4-O-Bu3ManNAc] | statistically identical levels | – | – | reduction in analog-enhanced sialic acid production ([1]; after four hours of serum treatment, Fig. 2C): only a relatively minor reduction; side effects such as cytotoxicity [5]: negligible
CCCC(=O)OC[C@H]1OC(OC(=O)CCC)[C@@H](NC(=O)CN=[N+]=[N-])[C@@H](OC(=O)CCC)[C@@H]1OC(=O)CCC (stereo partly shown) [Bu4ManNAz] | – | reduction, but not complete reversal | refractory to a loss of signal | –
